{
  "source": "patent US20230365554A1",
  "about": "“SUBSTITUTED PYRROLO-PYRIDINONE DERIVATIVES AND THERAPEUTIC USES THEREOF” (The Broad Institute, Inc., priority 2020, published 2023)",
  "key": {"human CSNK1A1": {"target": "human CSNK1A1 (Homo sapiens (Human), UniProt P48729)", "sequence (P48729 whole entry)": "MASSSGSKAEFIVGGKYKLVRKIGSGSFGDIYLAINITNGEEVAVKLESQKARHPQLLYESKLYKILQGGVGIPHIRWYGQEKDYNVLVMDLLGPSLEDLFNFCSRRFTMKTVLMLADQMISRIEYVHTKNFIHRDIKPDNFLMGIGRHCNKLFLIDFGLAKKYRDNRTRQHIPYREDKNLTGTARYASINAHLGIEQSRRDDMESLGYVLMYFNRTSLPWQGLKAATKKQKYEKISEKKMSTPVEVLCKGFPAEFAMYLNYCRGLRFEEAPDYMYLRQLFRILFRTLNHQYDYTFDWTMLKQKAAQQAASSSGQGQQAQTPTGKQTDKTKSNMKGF", "experiment": "CSNK1A1 Assay 2 (ADP-Glo, 1 μM ATP)", "assay_type": "biochemical", "conditions": "median, Table 2, read-out: CSNK1A1 Assay 2 IC50 [mol/l] (median)", "method": "CSNK1A1-inhibitory activity of compounds of the present invention in presence of 1 μM adenosine-tri-phosphate (ATP) was quantified employing the CSNK1A1 assay as described in the following paragraphs. In essence, the enzyme activity is measured by quantification of the adenosine-di-phosphate (ADP), which is generated as a co-product of the enzyme reaction, via the “ADP-Glo™ Kinase Assay” kit from the company Promega. This detection system works as follows: In a first step the ATP not consumed in the kinase reaction is quantitatively converted to cAMP employing an adenylate cyclase (“ADP-Glo-reagent”), then the adenylate cyclase is stopped and the ADP generated in the kinase reaction converted to ATP which generates in a luciferase-based reaction a glow-luminescence signal (“Kinase Detection Reagent”).\n(§1) Recombinant fusion protein of N-terminal Glutathion-S-Transferase (GST) and full-length human CSNK1A1, expressed by baculovirus infected insect cells and purified via Glutathion affinity chromatography, was purchased from Life Technologies (product no. PV4174) and used as enzyme. As substrate for the kinase reaction the biotinylated peptide biotin-Ahx-KRRRAL-pS-VASLPGL (C-terminus in amide form) was used which can be purchased e.g. from the company Biosyntan (Berlin-Buch, Germany).\nFor the assay 50 nl of a 100 fold concentrated solution of the test compound in DMSO was pipetted into a white 1536-well microtiter plate (Greiner Bio-One, Frickenhausen, Germany), 2 μL of a solution of CSNK1A1 in aqueous assay buffer [50 mM HEPES pH 7.5, 10% (v/v) glycerol, 10 mM MgCl2, 50 mM NaCl, 1 mM dithiothreitol, 0.01% (w/v) bovine serum albumin, 0.01% (v/v) Triton X-100] were added and the mixture was incubated for 15 min at 22° C. to allow pre-binding of the test compounds to the enzyme before the start of the kinase reaction. Then the kinase reaction was started by the addition of 3 μL of a solution of ATP (1.67 μM=>final conc. in the 5 μL assay volume is 1 μM) and peptide substrate (50 μM=>final conc. in the 5 μL assay volume is 30 μM) in assay buffer and the resulting mixture was incubated for a reaction time of 30 min at 22° C. The concentration of CSNK1A1 was adjusted depending of the activity of the enzyme lot and was chosen appropriate to have the assay in the linear range, a typical concentrations are about 0.0375 ng/μL. The reaction was stopped by the addition of 2.5 μL of “ADP-Glo-reagent” (1:1.5 fold diluted with water) and the resulting mixture was incubated at 22° C. for 1 h to convert the ATP not consumed in the kinase reaction completely […]. Subsequently 2.5 μL of the “kinase detection reagent” (1.2 fold more concentrated than recommended by the producer) were added, the resulting mixture was incubated at 22° C. for 1 h and then the luminescence measured with a suitable measurement instrument (e.g. Viewlux™ from Perkin-Elmer). The amount of emitted light was taken as a measure for the amount of ADP generated and thereby for the activity of the CSNK1A1.\n(§2) The data were normalised (enzyme reaction without inhibitor=0% inhibition, all other assay components but no enzyme=100% inhibition)."}, "human CSNK1D": {"target": "human CSNK1D (Homo sapiens (Human), UniProt P48730)", "sequence (P48730 whole entry)": "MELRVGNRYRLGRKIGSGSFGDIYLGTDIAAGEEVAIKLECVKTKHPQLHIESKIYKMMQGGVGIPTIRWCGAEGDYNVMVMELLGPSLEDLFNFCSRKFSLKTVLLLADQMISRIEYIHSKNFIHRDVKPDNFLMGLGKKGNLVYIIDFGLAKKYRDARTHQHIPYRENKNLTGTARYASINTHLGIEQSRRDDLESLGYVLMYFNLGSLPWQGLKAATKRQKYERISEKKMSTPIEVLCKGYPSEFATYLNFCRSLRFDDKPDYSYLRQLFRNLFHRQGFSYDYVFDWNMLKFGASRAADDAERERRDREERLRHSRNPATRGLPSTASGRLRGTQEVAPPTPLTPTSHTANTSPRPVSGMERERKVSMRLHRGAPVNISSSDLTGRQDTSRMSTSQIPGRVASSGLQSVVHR", "experiment": "CSNK1D assay (ADP-Glo, 1 μM ATP)", "assay_type": "biochemical", "conditions": "median, Table 2, read-out: CSNK1D IC50 [mol/l] (median)", "method": "CSNK1D-inhibitory activity of compounds of the present invention in presence of 1 μM adenosine-tri-phosphate (ATP) was quantified employing the CSNK1D assay as described in the following paragraphs. In essence, the enzyme activity is measured by quantification of the adenosine-di-phosphate (ADP), which is generated as a co-product of the enzyme reaction, via the “ADP-Glo™ Kinase Assay” kit from the company Promega. This detection system works as follows: In a first step the ATP not consumed in the kinase reaction is quantitatively converted to cAMP employing an adenylate cyclase (“ADP-Glo-reagent”), then the adenylate cyclase is stopped and the ADP generated in the kinase reaction converted to ATP which generates in a luciferase-based reaction a glow-luminescence signal (“Kinase Detection Reagent”).\nas §1, with “CSNK1D,” for “CSNK1A1,”, “PV3665)” for “PV4174)”, “Btn-Ahx-SGSEGDSESGEEEG” for “biotin-Ahx-KRRRAL-pS-VASLPGL”\nFor the assay 50 nl of a 100 fold concentrated solution of the test compound in DMSO was pipetted into a white 1536-well microtiter plate (Greiner Bio-One, Frickenhausen, Germany), 2 μL of a solution of CSNK1D in aqueous assay buffer [50 mM HEPES pH 7.5, 10% (v/v) glycerol, 10 mM MgCl2, 50 mM NaCl, 1 mM dithiothreitol, 0.01% (w/v) bovine serum albumin, 0.01% (v/v) Triton X-100] were added and the mixture was incubated for 15 min at 22° C. to allow pre-binding of the test compounds to the enzyme before the start of the kinase reaction. Then the kinase reaction was started by the addition of 3 μL of a solution of ATP (1.67 μM=>final conc. in the 5 μL assay volume is 1 μM) and peptide substrate (50 μM=>final conc. in the 5 μL assay volume is 30 μM) in assay buffer and the resulting mixture was incubated for a reaction time of 30 min at 22° C. The concentration of CSNK1D was adjusted depending of the activity of the enzyme lot and was chosen appropriate to have the assay in the linear range, a typical concentration is about 0.5 ng/μL. The reaction was stopped by the addition of 2.5 μL of “ADP-Glo-reagent” (1:1.5 fold diluted with water) and the resulting mixture was incubated at 22° C. for 1 h to convert the ATP not consumed in the kinase reaction completely […]. Subsequently 2.5 μL of the “kinase detection reagent” (1.2 fold more concentrated than recommended by the producer) were added, the resulting mixture was incubated at 22° C. for 1 h and then the luminescence measured with a suitable measurement instrument (e.g. Viewlux™ from Perkin-Elmer). The amount of emitted light was taken as a measure for the amount of ADP generated and thereby for the activity of the CSNK1D.\nas §2"}},
  "data": [
    {"molecule": "Cn1cc(CC(F)(F)F)c2[nH]c(-c3ccnc(NC(=O)C(CC(F)F)c4ccc(F)cc4)c3)c(Nc3ccccc3)c2c1=O", "note": "(racemic) [Example 35, N-{4-[3-anilino-5-methyl-4-oxo-7-(2,2,2-trifluoroethyl)-4,5-dihydro-1H-pyrrolo[3,2-c]pyridin-2-yl]pyridin-2-yl}-4,4-difluoro-2-(4-fluorophenyl)butanamide]", "values": [
      {"measurement": "IC50", "setting": "human CSNK1A1", "value": 8, "unit": "nM"},
      {"measurement": "IC50", "setting": "human CSNK1D", "value": 5.9, "unit": "nM"}
    ]}
  ]
}
